{"source": "patent US20250313548A1", "about": "(Actio Biosciences, Inc., priority 2023, published 2025)", "note": "pIC50: −log10 of the molar value."}
{"molecular_target": "human, KCNT1 (Homo sapiens (Human), UniProt Q5JUK3)", "sequence (Q5JUK3 whole entry)": "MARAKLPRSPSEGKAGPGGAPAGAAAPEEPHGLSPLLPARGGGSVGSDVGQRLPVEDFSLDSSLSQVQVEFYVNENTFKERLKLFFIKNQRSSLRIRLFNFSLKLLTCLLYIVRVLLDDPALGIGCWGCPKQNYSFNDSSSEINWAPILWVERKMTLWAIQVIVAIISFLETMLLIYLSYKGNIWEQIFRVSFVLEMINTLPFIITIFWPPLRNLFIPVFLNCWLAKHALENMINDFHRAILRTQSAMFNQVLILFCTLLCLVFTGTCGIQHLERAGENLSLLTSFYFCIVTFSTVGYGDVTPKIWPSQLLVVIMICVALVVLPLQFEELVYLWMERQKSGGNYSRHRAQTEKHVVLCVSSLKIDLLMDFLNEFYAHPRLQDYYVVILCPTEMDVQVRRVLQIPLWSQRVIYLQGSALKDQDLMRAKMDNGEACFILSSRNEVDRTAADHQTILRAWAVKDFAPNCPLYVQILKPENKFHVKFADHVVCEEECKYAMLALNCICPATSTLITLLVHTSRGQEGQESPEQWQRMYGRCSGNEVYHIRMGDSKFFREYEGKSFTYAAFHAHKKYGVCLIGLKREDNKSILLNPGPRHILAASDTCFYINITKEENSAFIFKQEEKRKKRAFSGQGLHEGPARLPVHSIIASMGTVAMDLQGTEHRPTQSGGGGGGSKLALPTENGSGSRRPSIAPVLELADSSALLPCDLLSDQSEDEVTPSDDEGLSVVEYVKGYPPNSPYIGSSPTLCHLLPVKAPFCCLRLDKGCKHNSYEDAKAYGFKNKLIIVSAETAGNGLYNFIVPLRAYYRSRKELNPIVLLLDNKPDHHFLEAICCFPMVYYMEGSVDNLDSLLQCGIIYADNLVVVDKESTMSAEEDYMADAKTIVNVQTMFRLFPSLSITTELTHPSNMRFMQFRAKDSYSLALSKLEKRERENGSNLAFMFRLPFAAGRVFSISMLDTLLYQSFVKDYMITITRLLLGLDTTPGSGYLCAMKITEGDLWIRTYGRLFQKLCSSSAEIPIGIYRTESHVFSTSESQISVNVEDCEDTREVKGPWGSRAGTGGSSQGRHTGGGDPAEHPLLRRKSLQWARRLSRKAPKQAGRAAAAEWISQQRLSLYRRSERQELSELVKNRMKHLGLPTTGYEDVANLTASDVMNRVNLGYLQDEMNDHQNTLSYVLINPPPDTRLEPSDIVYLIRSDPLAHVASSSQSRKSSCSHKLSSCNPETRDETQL", "assay": "FLIPR Tl/K Flux Assay", "format": "cell-based", "details": "HEK293 cells stably expressing human KCNT1; Tl+ flux stimulated with EC80 of agonist Loxapine", "summary_of_the_method": "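HEK293 cells stably expressing human KCNT1 were loaded with FLIPR potassium dye in HEPES/HBSS pH 7.4 with 5 mM probenecid, 1 h at 25 °C, then given test compound for 30 min at 25 °C. Tl+ flux was triggered with chloride-free buffer containing Tl+ and EC80 loxapine and read 160 s. IC50 came from Hill fits of % inhibition.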"}
{"smiles": "Cn1nc(C(F)(F)F)cc1C(=O)N[C@@H]1CCn2nc(-c3ccnc(C(F)(F)F)c3)cc21", "note": "[Compound I-123b, (R)-1-methyl-3-(trifluoromethyl)-N-(2-(2-(trifluoromethyl)pyridin-4-yl)-5,6-dihydro-4H-pyrrolo[1,2-b]pyrazol-4-yl)-1H-pyrazole-5-carboxamide]", "pIC50": "6.30 to 6.60"}
{"smiles": "COc1cc(C(=O)N[C@H]2CCCn3nc(-c4ccnc(C(F)(F)F)c4)cc32)cc(OC)n1", "note": "[Compound I-124a, (S)-2,6-Dimethoxy-N-(2-(2-(trifluoromethyl)pyridin-4-yl)-4,5,6,7-tetrahydropyrazolo[1,5-a]pyridin-4-yl)isonicotinamide]", "pIC50": "> 6.60"}
{"smiles": "Cc1nc(C(F)(F)F)oc1C(=O)N[C@H]1CCCn2nc(-c3ccnc(C(F)(F)F)c3)cc21", "note": "[Compound I-125a, (S)-4-Methyl-2-(trifluoromethyl)-N-(2-(2-(trifluoromethyl)pyridin-4-yl)-4,5,6,7-tetrahydropyrazolo[1,5-a]pyridin-4-yl)oxazole-5-carboxamide]", "pIC50": "> 6.60"}
{"smiles": "COc1cc(-c2cc3n(n2)CCCC[C@@H]3NC(=O)c2cc(C(F)(F)F)nn2C)ccn1", "note": "[Compound I-126a, (S)—N-(2-(2-Methoxypyridin-4-yl)-5,6,7,8-tetrahydro-4H-pyrazolo[1,5-a]azepin-4-yl)-1-methyl-3-(trifluoromethyl)-1H-pyrazole-5-carboxamide]", "pIC50": "> 6.60"}
{"smiles": "CCc1cc(F)cc(C(=O)N[C@H]2CCc3nn(-c4ccnc(C(F)(F)F)c4)cc32)c1", "note": "[Compound I-127a, (S)-3-Ethyl-5-fluoro-N-(2-(2-(trifluoromethyl)pyridin-4-yl)-2,4,5,6-tetrahydrocyclopenta[c]pyrazol-4-yl)benzamide]", "pIC50": "> 6.60"}
{"smiles": "CCc1cc(F)cc(C(=O)N[C@@H]2CCc3nn(-c4ccnc(C(F)(F)F)c4)cc32)c1", "note": "[Compound I-127b]", "pIC50": "> 6.60"}
{"smiles": "N#Cc1cccc(C(=O)N[C@H]2CCCn3nc(-c4ccnc(C(F)(F)F)c4)cc32)c1", "note": "[Compound I-128a, (S)-3-Cyano-N-(2-(2-(trifluoromethyl)pyridin-4-yl)-4,5,6,7-tetrahydropyrazolo[1,5-a]pyridin-4-yl)benzamide]", "pIC50": "> 6.60"}
{"smiles": "O=C(N[C@H]1CCCc2oc(-c3ccnc(C4CC4)c3)nc21)c1cc(C(F)(F)F)n(C(F)F)n1", "note": "[Compound I-130a, (S)-N-(2-(2-Cyclopropylpyridin-4-yl)-4,5,6,7-tetrahydrobenzo[d]oxazol-4-yl)-1-(difluoromethyl)-5-(trifluoromethyl)-1H-pyrazole-3-carboxamide]", "pIC50": "> 6.60"}
{"smiles": "O=C(N[C@H]1CCCc2oc(-c3ccnc(C4CC4)c3)nc21)c1cccc(F)c1", "note": "[Compound I-131a, (S)-N-(2-(2-Cyclopropylpyridin-4-yl)-4,5,6,7-tetrahydrobenzo[d]oxazol-4-yl)-3-fluorobenzamide]", "pIC50": "> 6.60"}
{"smiles": "O=C(N[C@H]1CCCc2oc(-c3ccnc(C4CC4)c3)nc21)c1cncc(F)c1", "note": "[Compound I-132a, (S)-N-(2-(2-Cyclopropylpyridin-4-yl)-4,5,6,7-tetrahydrobenzo[d]oxazol-4-yl)-5-fluoronicotinamide]", "pIC50": "> 6.60"}
{"smiles": "O=C(N[C@H]1CCc2nc(-c3ccnc(C(F)(F)F)c3)ccc21)c1cccc(C(F)(F)F)c1", "note": "[Compound I-133a, (S)-3-(Trifluoromethyl)-N-(2-(2-(trifluoromethyl)pyridin-4-yl)-6,7-dihydro-5H-cyclopenta[b]pyridin-5-yl)benzamide]", "pIC50": "> 6.60"}
{"smiles": "Cn1nc(C(F)(F)F)cc1C(=O)N[C@H]1CCc2nc(-c3ccnc(C(F)(F)F)c3)ccc21", "note": "[Compound I-134a, (S)-1-Methyl-3-(trifluoromethyl)-N-(2-(2-(trifluoromethyl)pyridin-4-yl)-6,7-dihydro-5H-cyclopenta[b]pyridin-5-yl)-1H-pyrazole-5-carboxamide]", "pIC50": "> 6.60"}
{"smiles": "COc1cc(-c2nc3c(o2)[C@@H](NC(=O)c2ccnc(OC(F)(F)F)c2)CCC3)ccn1", "note": "[Compound I-135a, (S)-N-(2-(2-Methoxypyridin-4-yl)-4,5,6,7-tetrahydrobenzo[d]oxazol-7-yl)-2-(trifluoromethoxy)isonicotinamide]", "pIC50": "> 6.60"}
{"smiles": "O=C(N[C@H]1CCCc2oc(-c3ccnc(C4CC4)c3)nc21)c1cncc(C(F)(F)F)c1", "note": "[Compound I-137a, (S)-N-(2-(2-Cyclopropylpyridin-4-yl)-4,5,6,7-tetrahydrobenzo[d]oxazol-4-yl)-5-(trifluoromethyl)nicotinamide]", "pIC50": "> 6.60"}
{"smiles": "O=C(N[C@H]1CCn2nc(-c3ccnc(C(F)(F)F)c3)cc21)C12CC(C(F)(F)F)(C1)C2", "note": "[Compound I-138a, (S)-3-(Trifluoromethyl)-N-(2-(2-(trifluoromethyl)pyridin-4-yl)-5,6-dihydro-4H-pyrrolo[1,2-b]pyrazol-4-yl)bicyclo[1.1.1]pentane-1-carboxamide]", "pIC50": "> 6.60"}
{"smiles": "O=C(N[C@H]1CCn2nc(-c3cc(C(F)(F)F)ncc3F)cc21)c1cccc(C(F)(F)F)c1", "note": "[Compound I-139a, (S)-N-(2-(5-Fluoro-2-(trifluoromethyl)pyridin-4-yl)-5,6-dihydro-4H-pyrrolo[1,2-b]pyrazol-4-yl)-3-(trifluoromethyl)benzamide]", "pIC50": "> 6.60"}
{"smiles": "Cc1cc(C#N)cc(C(=O)N[C@H]2CCn3nc(-c4cc(C(F)(F)F)ncc4F)cc32)c1", "note": "[Compound I-140a]", "pIC50": "> 6.60"}
{"smiles": "Cc1cnc(C(F)(F)F)cc1-c1cc2n(n1)CC[C@@H]2NC(=O)c1nc(C(F)(F)F)nn1C", "note": "[Compound I-141a, (S)-1-Methyl-N-(2-(5-methyl-2-(trifluoromethyl)pyridin-4-yl)-5,6-dihydro-4H-pyrrolo[1,2-b]pyrazol-4-yl)-3-(trifluoromethyl)-1H-1,2,4-triazole-5-carboxamide]", "pIC50": "> 6.60"}
{"smiles": "Cn1nc(C(F)(F)F)nc1C(=O)N[C@H]1CCn2nc(-c3cc(C(F)(F)F)ncc3Cl)cc21", "note": "[Compound I-142a, (S)-N-(2-(5-Chloro-2-(trifluoromethyl)pyridin-4-yl)-5,6-dihydro-4H-pyrrolo[1,2-b]pyrazol-4-yl)-1-methyl-3-(trifluoromethyl)-1H-1,2,4-triazole-5-carboxamide]", "pIC50": "> 6.60"}
{"smiles": "COc1cc(-c2nc3c(o2)[C@@H](NC(=O)c2cncc(C(F)(F)F)n2)CCC3)ccn1", "note": "[Compound I-143a, (S)-N-(2-(2-Methoxypyridin-4-yl)-4,5,6,7-tetrahydrobenzo[d]oxazol-7-yl)-6-(trifluoromethyl)pyrazine-2-carboxamide]", "pIC50": "< 6.00"}
{"smiles": "Cc1cnc(C(F)(F)F)cc1-c1cc2n(n1)CC[C@@H]2NC(=O)c1cccc(C#N)c1", "note": "[Compound I-144a, (S)-3-Cyano-N-(2-(5-methyl-2-(trifluoromethyl)pyridin-4-yl)-5,6-dihydro-4H-pyrrolo[1,2-b]pyrazol-4-yl)benzamide]", "pIC50": "> 6.60"}
{"smiles": "COc1cc(C(=O)N[C@H]2CCn3nc(-c4cc(C(F)(F)F)ncc4F)cc32)ccn1", "note": "[Compound I-145a, (S)—N-(2-(5-Fluoro-2-(trifluoromethyl)pyridin-4-yl)-5,6-dihydro-4H-pyrrolo[1,2-b]pyrazol-4-yl)-2-methoxyisonicotinamide]", "pIC50": "> 6.60"}
{"smiles": "Cn1nc(C(F)(F)F)nc1C(=O)N[C@H]1CCn2nc(-c3ccnc(C(C)(F)F)c3)cc21", "note": "[Compound I-146a, (S)—N-(2-(2-(1,1-Difluoroethyl)pyridin-4-yl)-5,6-dihydro-4H-pyrrolo[1,2-b]pyrazol-4-yl)-1-methyl-3-(trifluoromethyl)-1H-1,2,4-triazole-5-carboxamide]", "pIC50": "> 6.60"}
{"smiles": "O=C(N[C@H]1CCn2nc(-c3ccnc(C(F)(F)F)c3)cc21)C1CC(C(F)(F)F)C1", "note": "(stereo partly drawn) [Compound I-147a, (S)-3-(Trifluoromethyl)-N-(2-(2-(trifluoromethyl)pyridin-4-yl)-5,6-dihydro-4H-pyrrolo[1,2-b]pyrazol-4-yl)cyclobutane-1-carboxamide]", "pIC50": "> 6.60"}
{"smiles": "COc1cc(-c2nc3c(o2)[C@@H](NC(=O)c2cc(Cl)cc(Cl)c2)CCC3)ccn1", "note": "[Compound I-150a, (S)-3,5-Dichloro-N-(2-(2-methoxypyridin-4-yl)-4,5,6,7-tetrahydrobenzo[d]oxazol-7-yl)benzamide]", "pIC50": "> 6.60"}
{"smiles": "COc1cc(-c2nc3c(o2)[C@@H](NC(=O)c2cccc(OC(F)(F)F)c2)CCC3)ccn1", "note": "[Compound I-151a, (S)-N-(2-(2-Methoxypyridin-4-yl)-4,5,6,7-tetrahydrobenzo[d]oxazol-7-yl)-3-(trifluoromethoxy)benzamide]", "pIC50": "> 6.60"}
{"smiles": "O=C(N[C@H]1CCCc2nc(-c3ccnc(C4CC4)c3)oc21)c1cncc(C(F)(F)F)n1", "note": "[Compound I-152a, (S)-N-(2-(2-Cyclopropylpyridin-4-yl)-4,5,6,7-tetrahydrobenzo[d]oxazol-7-yl)-6-(trifluoromethyl)pyrazine-2-carboxamide]", "pIC50": "> 6.60"}
{"smiles": "O=C(N[C@H]1CCCc2nc(-c3ccnc(C4CC4)c3)oc21)c1cc(Cl)cc(Cl)c1", "note": "[Compound I-153a, (S)-3,5-Dichloro-N-(2-(2-cyclopropylpyridin-4-yl)-4,5,6,7-tetrahydrobenzo[d]oxazol-7-yl)benzamide]", "pIC50": "> 6.60"}
{"smiles": "Cn1nc(C(F)F)nc1C(=O)N[C@H]1CCn2nc(-c3ccnc(C(F)(F)F)c3)cc21", "note": "[Compound I-155a, (S)-3-(Difluoromethyl)-1-methyl-N-(2-(2-(trifluoromethyl)pyridin-4-yl)-5,6-dihydro-4H-pyrrolo[1,2-b]pyrazol-4-yl)-1H-1,2,4-triazole-5-carboxamide]", "pIC50": "> 6.60"}
{"smiles": "O=C(N[C@H]1CCCc2nc(-c3cc(C4CC4)ncc3F)oc21)c1cncc(C(F)(F)F)n1", "note": "[Compound I-156a]", "pIC50": "> 6.60"}
{"smiles": "O=C(N[C@H]1CCCc2nc(-c3cc(C4CC4)ncc3F)oc21)c1cc(Cl)cc(Cl)c1", "note": "[Compound I-157a, (S)-3,5-Dichloro-N-(2-(2-cyclopropyl-5-fluoropyridin-4-yl)-4,5,6,7-tetrahydrobenzo[d]oxazol-7-yl)benzamide]", "pIC50": "> 6.60"}
{"smiles": "O=C(N[C@H]1CCCc2nc(-c3cc(C4CC4)ncc3F)oc21)c1ccnc(OC(F)(F)F)c1", "note": "[Compound I-158a, (S)-N-(2-(2-Cyclopropyl-5-fluoropyridin-4-yl)-4,5,6,7-tetrahydrobenzo[d]oxazol-7-yl)-2-(trifluoromethoxy)isonicotinamide]", "pIC50": "> 6.60"}
